Data taken from ChEMBL document CHEMBL4311942, “Design of Trp-Rich Dodecapeptides with Broad-Spectrum Antimicrobial Potency and Membrane-Disruptive Mechanism” (J Med Chem, 2019).
In brackets after ≈: the same amount, converted by molar mass. Activity calls are given as the source filed them. No cut-off for these calls is given here. Where a SMILES comes first, the peptide text is derived from it.

What was measured:
Escherichia coli [1] = test: Antibacterial activity against Escherichia coli ATCC 25922 using preheated compound at 100 degreeC for 1 hr by broth microdilution method; assay type: functional; conditions: ATCC 25922, 1 h
Escherichia coli [2] = test: Induction of cell membrane disruption in Escherichia coli ATCC 25922 assessed as appearance of partial membrane corrugation at 1 times MIC after 60 mins by field emission scanning electron microscopy; assay type: organism-based
[3] = Drug localization in Escherichia coli ATCC 25922 at 2 times MIC incubated for 1 hr using FITC-labelled peptides by propidium iodide-staining based super resolution fluorescent microscopy; assay type: ADME
Escherichia coli [4] = test: Disruption of Escherichia coli ATCC 25922 cell membrane assessed as induction of arachnoid damage at 2 times MIC after 60 mins by field emission scanning electron microscopy; assay type: organism-based
Staphylococcus aureus [5] = test: Antibacterial activity against Staphylococcus aureus ATCC 29213 in presence of NaCl by broth microdilution method; assay type: functional
Staphylococcus aureus [6] = test: Antibacterial activity against Staphylococcus aureus ATCC 29213 in presence of H202 by broth microdilution method; assay type: functional
Escherichia coli [7] = test: Antibacterial activity against Escherichia coli ATCC 25922 in presence of 50% serum by broth microdilution method; assay type: functional
Escherichia coli [8] = test: Bactericidal activity against Escherichia coli ATCC 25922 at 4 times MIC after 60 mins by time kill assay relative to control; assay type: functional
Escherichia coli [9] = test: Antibacterial activity against Escherichia coli ATCC 25922 in presence of 12.5% serum by broth microdilution method; assay type: functional
Escherichia coli [10] = test: Induction of cell membrane disruption in Escherichia coli ATCC 25922 assessed as leakage of cellular contents at 1 to 2 times MIC after 60 mins by transmission electron microscopy; assay type: organism-based
Salmonella typhimurium = test: Antibacterial activity against Salmonella enterica serovar typhimurium C77-31 incubated for 18 to 24 hrs by broth microdilution method; assay type: functional, Salmonella enterica subsp. enterica serovar Typhimurium
Staphylococcus aureus [11] = test: Antibacterial activity against Staphylococcus aureus ATCC 29213 incubated for 2 hrs in presence of sodium phosphate buffer at pH 4 by broth microdilution method; assay type: functional; conditions: ATCC 29213, 2 h
Escherichia coli [12] = test: Antibacterial activity against Escherichia coli ATCC 25922 in presence of NaBH4 by broth microdilution method; assay type: functional
Acinetobacter baumannii [13] = test: Antibacterial activity against Acinetobacter baumannii AB1901 clinical isolate incubated for 18 to 24 hrs by broth microdilution method; assay type: functional
Acinetobacter baumannii [14] = test: Antibacterial activity against Acinetobacter baumannii AB1902 clinical isolate incubated for 18 to 24 hrs by broth microdilution method; assay type: functional
Staphylococcus aureus [15] = test: Antibacterial activity against Staphylococcus aureus ATCC 29213 in presence of NaBH4 by broth microdilution method; assay type: functional
Staphylococcus aureus [16] = test: Antibacterial activity against Staphylococcus aureus ATCC 29213 in presence of MgCl2 by broth microdilution method; assay type: functional
Escherichia coli [17] = test: Antibacterial activity against Escherichia coli ATCC 25922 incubated for 2 hrs in presence of sodium phosphate buffer at pH 2 by broth microdilution method; assay type: functional; conditions: ATCC 25922, 2 h
Escherichia coli [18] = test: Antibacterial activity against Escherichia coli ATCC 25922 incubated for 2 hrs in presence of sodium phosphate buffer at pH 10 by broth microdilution method; assay type: functional; conditions: ATCC 25922, 2 h
Escherichia coli [19] = test: Induction of cell membrane disruption in Escherichia coli ATCC 25922 assessed as appearance of cytoplasmic clear zones at 1 times MIC after 60 mins by transmission electron microscopy; assay type: organism-based
Staphylococcus aureus [20] = test: Bactericidal activity against Staphylococcus aureus ATCC 29213 at 2 times MIC after 60 mins by time kill assay; assay type: functional, organism-based
Escherichia coli [21] = test: Antibacterial activity against ciprofloxacin-resistant Escherichia coli ATCC 25922 incubated for 18 to 24 hrs; assay type: functional
Escherichia coli [22] = test: Antibacterial activity against Escherichia coli ATCC 25922 in presence of H202 by broth microdilution method; assay type: functional
Escherichia coli [23] = test: Antibacterial activity against Escherichia coli ATCC 25922 in presence of NaCl by broth microdilution method; assay type: functional
Staphylococcus aureus [24] = test: Induction of cell membrane disruption in Staphylococcus aureus ATCC 29213 assessed as apperance of rough membrane with discrete blebs at 1 times MIC after 60 mins by field emission scanning electron microscopy; assay type: organism-based
Escherichia coli [25] = test: Antibacterial activity against Escherichia coli UB1005 incubated for 18 to 24 hrs by broth microdilution method; assay type: functional
Escherichia coli [26] = test: Bactericidal activity against Escherichia coli ATCC 25922 at 1 times MIC after 120 mins by time kill assay; assay type: functional, organism-based
Escherichia coli [27] = test: Induction of outer membrane permeabilization in Escherichia coli UB1005 assessed as increase in NPN uptake at 4 uM by spectrofluorophotometric assay relative to control
Staphylococcus aureus [28] = test: Antibacterial activity against Staphylococcus aureus ATCC 29213 in presence of 50% serum by broth microdilution method; assay type: functional
[29] = Cytotoxicity against mouse RAW264.7 cells assessed as cell survival at […] after 24 hrs by MTT assay relative to control; assay type: cell-based; conditions: read-out: Activity
Staphylococcus aureus [30] = test: Antibacterial activity against Staphylococcus aureus ATCC 29213 in presence of NH4Cl by broth microdilution method; assay type: functional
Escherichia coli [31] = test: Antibacterial activity against Escherichia coli ATCC 25922 in presence of 25% serum by broth microdilution method; assay type: functional
Staphylococcus aureus [32] = test: Bactericidal activity against Staphylococcus aureus ATCC 29213 at 4 times MIC after 30 mins by time kill assay; assay type: functional, organism-based
Staphylococcus aureus [33] = test: Antibacterial activity against Staphylococcus aureus ATCC 29213 incubated for 2 hrs in presence of sodium phosphate buffer at pH 2 by broth microdilution method; assay type: functional; conditions: ATCC 29213, 2 h
Escherichia coli [34] = test: Bactericidal activity against Escherichia coli ATCC 25922 assessed as reduction in bacterial growth at 4 times MIC after 30 mins by time kill assay relative to control; assay type: functional
Escherichia coli [35] = test: Induction of cell membrane disruption in Escherichia coli ATCC 25922 after 30 mins by propidium iodide-staining based flow cytometric analysis; assay type: organism-based
Staphylococcus aureus [36] = test: Antibacterial activity against Staphylococcus aureus ATCC 29213 incubated for 2 hrs in presence of sodium phosphate buffer at pH 12 by broth microdilution method; assay type: functional; conditions: ATCC 29213, 2 h
Staphylococcus aureus [37] = test: Antibacterial activity against Staphylococcus aureus ATCC 29213 in presence of 25% serum by broth microdilution method; assay type: functional
Staphylococcus aureus [38] = test: Antibacterial activity against Staphylococcus aureus ATCC 25923 incubated for 18 to 24 hrs by broth microdilution method; assay type: functional
Staphylococcus aureus [39] = test: Antibacterial activity against Staphylococcus aureus ATCC 29213 incubated for 18 to 24 hrs by broth microdilution method; assay type: functional
[40] = Drug localization in Staphylococcus aureus ATCC 29213 at 1 to 2 times MIC incubated for 1 hr using FITC-labelled peptides by propidium iodide-staining based regular fluorescent microscopy; assay type: ADME
Escherichia coli [41] = test: Antibacterial activity against Escherichia coli ATCC 25922 in presence of NH4Cl by broth microdilution method; assay type: functional
Lipopolysaccharide (LPS) = test: Displacement of BODIPY-TR-cadaverine from Escherichia coli O111:B4 LPS assessed as increase in fluorescence intensity at 64 uM by spectrofluorophotometric method relative to control
Staphylococcus aureus [42] = test: Antibacterial activity against Staphylococcus aureus ATCC 29213 using preheated compound at 100 degreeC for 1 hr by broth microdilution method; assay type: functional; conditions: ATCC 29213, 1 h

## CC(C)C[C@H](NC(=O)[C@H](CCCNC(=N)N)NC(=O)[C@H](Cc1c[nH]c2ccccc12)NC(=O)[C@H](CCCNC(=N)N)NC(=O)[C@@H](NC(=O)[C@H](CCCCN)NC(=O)[C@H](Cc1c[nH]c2ccccc12)NC(=O)[C@H](CCCNC(=N)N)NC(=O)[C@H](CC(C)C)NC(=O)[C@H](CCCNC(=N)N)NC(=O)[C@@H](N)Cc1c[nH]c2ccccc12)[C@@H](C)O)C(=O)N[C@@H](CCCCN)C(N)=O (H-WRLRWKTRWRLK-NH2)
Escherichia coli [1]
  MIC: 2 µM (≈ 3.57 µg/mL)
Escherichia coli [2]
  Activity: Active
[3]
  Drug uptake: Active
Escherichia coli [4]
  Activity: Active
Staphylococcus aureus [5]
  MIC: 8 µM
Staphylococcus aureus [6]
  MIC: 4 µM
Escherichia coli [7]
  MIC: 8 µM
Escherichia coli [8]
  Activity: 100%
Escherichia coli [9]
  MIC: 4 µM
Escherichia coli [10]
  Activity: Active
Salmonella typhimurium
  MIC: 2 µM (≈ 3.57 µg/mL)
Staphylococcus aureus [11]
  MIC: 4 µM
Escherichia coli [12]
  MIC: 4 µM
Acinetobacter baumannii [13]
  MIC: 4 µM (≈ 7.14 µg/mL)
Acinetobacter baumannii [14]
  MIC: 4 µM (≈ 7.14 µg/mL)
Staphylococcus aureus [15]
  MIC: 4 µM
Staphylococcus aureus [16]
  MIC: 2 µM
Escherichia coli [17]
  MIC: 4 µM
Escherichia coli [18]
  MIC: 4 µM
Escherichia coli [19]
  Activity: Active
Staphylococcus aureus [20]
  Activity: Active
Escherichia coli [21]
  MIC: 4 µM (≈ 7.14 µg/mL)
Escherichia coli [22]
  MIC: 2 µM
Escherichia coli [23]
  MIC: 4 µM
Staphylococcus aureus [24]
  Activity: Active
Escherichia coli [25]
  MIC: 2 µM (≈ 3.57 µg/mL)
Escherichia coli [26]
  Activity: inactive
Escherichia coli [27]
  Activity: 90%
Staphylococcus aureus [28]
  MIC: 8 µM
[29]
  viability at 24 h, […]: ≤ 90%
Staphylococcus aureus [30]
  MIC: 4 µM
Escherichia coli [31]
  MIC: 4 µM
Staphylococcus aureus [32]
  Activity: Active
Staphylococcus aureus [33]
  MIC: 4 µM
Escherichia coli [34]
  log(activity): 1
Escherichia coli [35]
  Activity: Dose-dependent effect
Staphylococcus aureus [36]
  MIC: 8 µM
Staphylococcus aureus [37]
  MIC: 8 µM
Staphylococcus aureus [38]
  MIC: 2 µM (≈ 3.57 µg/mL)
Staphylococcus aureus [39]
  MIC: 4 µM (≈ 7.14 µg/mL)
[40]
  Drug uptake: Active
Escherichia coli [41]
  MIC: 1 µM
Lipopolysaccharide (LPS)
  Activity: 92%
Staphylococcus aureus [42]
  MIC: 2 µM (≈ 3.57 µg/mL)
